According to patent US20210186947A1, “TOMM6-INTERACTING EXTRACTS AND COMPOUNDS FOR USE IN THE TREATMENT AND PROPHYLAXIS OF NERVOUS SYSTEM DISEASES, ATHEROSCLEROSIS, HEPATITIS B INFECTION AND HUMAN PAPILLOMA VIRUS (HPV) INFECTION” (ETH ZURICH, priority 2018, published 2021):

Experiments:
Abeta plaques = assay: Abeta plaque load in Tg2576 mice, immunohistology with BAM-10 antibody; assay type: in vivo; conditions: 18-month-old Tg2576 mice treated for 6 months
Ccr9 = assay: Whole genome microarray gene expression analysis of aortic genes: Ccr9; assay type: in vivo; conditions: ApoE-/- mice, 10 mg/kg/day for 8 months
Experimental: Whole genome microarray gene expression profiling was performed with aortic specimens isolated from 9-month-old ApoE−/− mice without treatment and with oral treatment for 8 months with alizarin (10 mg/kg/day), and untreated age-matched B6 control mice. Total RNA was isolated by the RNeasy Mini kit according to the protocol of the manufacturer (Qiagen). RNA purity was between 1.8 and 2 as determined by the absorbance ratio of 260/280. RNA quality and absence of signs of degradation were also controlled by RNA electrophoresis on a denaturing agarose gel by the presence of bright bands of 28S and 18S ribosomal RNA. Total RNA was processed for whole genome microarray gene expression profiling with the GeneChip One-Cycle Target Labeling System (Affymetrix) according to the protocol of the manufacturer (Affymetrix GeneChip Expression Analysis Technical Manual Rev. 5). […]
Alzheimer's Disease (AD) is the most frequent form of dementia in the elderly. […] Atherosclerotic lesion area was assessed with oil red O-stained aortas isolated from 9-month-old ApoE−/− mice (FIG. 17A). […] The aortic expression levels of neuronal marker genes of alizarin-treated ApoE−/− mice were determined compared to untreated ApoE−/− mice and untreated B6 mice without atherosclerosis (FIG. 17D,E).

[1] = Body weight and food intake of B6 mice under oral treatment; conditions: oral 100 mg/kg/day for 4 weeks
[2] = molecular target: T1, Tomm6 (Mitochondrial import receptor subunit TOMM6 homolog) (Mus musculus, UniProt Q9CQN3); assay: Identification of Compound-1-interacting hippocampal proteins by co-migration in SDS-PAGE and nano-LC-ESI-MS/MS; assay type: binding, Tg2576 mice; conditions: solubilisate of hippocampal proteins supplemented with 10 microM Compound-1
T1 construct: hippocampi were isolated from 5-10 aged Tg2576 mice, pulverized under liquid nitrogen and solubilized; from tissue; host or cells: hippocampus of Tg2576 mice
Experimental: To isolate Compound-1-interacting hippocampal proteins, hippocampi were isolated from 5-10 aged Tg2576 mice, pulverized under liquid nitrogen and solubilized for 30 min at 4° C. in solubilization buffer (1% sodium deoxycholate, 0.05% SDS, 0.05% Tween 20 in PBS, pH 7.4, supplemented with protease inhibitors). Insoluble material was removed by centrifugation. The supernatant was diluted 1:5 in PBS (supplemented with protease inhibitors). To this solubilisate, Compound-1 was added at a concentration of 10 μM. Buffer exchange into 20 mM Tris pH 7.4 was performed by centrifugation over Amicon Ultra Centrifugal Filter Units (MWCO 3 kDa; EMD Millipore Merck KGaA, Darmstadt, Germany). The concentrated proteins were dissolved in Laemmli sample buffer (Bio-Rad GmbH, Munchen, Germany) supplemented with mercaptoethanol (355 mM) and subjected to 8% SDS-PAGE under reducing conditions. Compound-1-interacting proteins were identified by co-migration, protein bands were cut and subjected to nano-LC-ES-MS/MS (performed by Proteome Factory AG, Berlin, Germany). Proteins were identified using MS/MS ion search of the Mascot search engine (Matrix Science, London, England) and nr protein database (National Center for Biotechnology Information, Bethesda, MD). […]

T1 sequence (Q9CQN3 whole entry): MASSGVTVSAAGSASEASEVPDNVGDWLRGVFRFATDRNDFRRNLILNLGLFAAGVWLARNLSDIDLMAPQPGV

O=C1c2ccccc2C(=O)c2c1ccc(O)c2O [Compound-1, 1,2-dihydroxyanthraquinone]
Abeta plaque load in hippocampal and brain cortical areas (Abeta plaques): significantly inhibited the accumulation of Abeta plaques
aortic expression of Ccr9 (Ccr9): significantly decreased expression
body weight ([1]; 12-week-old B6 mice): did not significantly alter
daily food intake / food consumption ([1]; B6 mice): did not significantly alter
interaction with Tomm6 (co-migration) [2]: major Compound-1-interacting protein
